Laboratory results: patent publication US8048825B2, “Haloalkylsulfonanilide derivatives or salt thereof, herbicide comprising the derivatives as active ingredient, and use of the herbicide” (Nihon Nohyaku Co., Ltd., priority 2006, dated 2011)

What was measured:
Format in all cases: in vivo
Scirpus juncoides [1] = experiment: Herbicidal efficacy on paddy field weeds of pre-emergence stage (Pre), Test Example 1; settings: 1000 g/ha as active ingredient, examined after 21 days
Protocol: (§1) 75 cm^2 plastic pots were filled with the soil (clay loam). Seeds of Scirpus juncoides, a paddy weed, were planted, and they were covered with 75 cm^3 of soil mixed with seeds of Lindernia procumbens and then filled with water depth of 5 cm. Next day, predetermined effective dosage (1000 g/ha as an active ingredient) of formulations comprising a compound of the present invention as an active ingredient which were prepared following Formulation Examples 1 to 4 was diluted with water and applied dropwise to the surface of the water. Then, they were brought up in a greenhouse and the herbicidal effect was examined after 21 days from the treatment by comparing with the result of an untreated group according to the following criteria. In the table, “-” means that the test was not performed.
(§2) Criteria for herbicidal efficacy (growth inhibiting degree) and phytotoxicity. • 5 . . . 100% herbicidal effect, phytotoxicity. • 4 . . . 90%-99% herbicidal effect, phytotoxicity. • 3 . . . 70%-89% herbicidal effect, phytotoxicity. • 2 . . . 40%-69% herbicidal effect, phytotoxicity. • 1 . . . 1%-39% herbicidal effect, phytotoxicity. • 0 . . . 0% herbicidal effect, phytotoxicity.

Lindernia procumbens [2] = experiment: as above; settings: 1000 g/ha as active ingredient, examined after 21 days
Protocol: as §1, §2

Scirpus juncoides [3] = experiment: Herbicidal effect on paddy field weeds of post-emergence stage (Post), Test Example 2; settings: one-leaf stage, 1000 g/ha as active ingredient, examined after 21 days
Description: as §2
(§3) 75 cm^2 plastic pots were filled with the soil (clay loam). Seeds of Scirpus juncoides and Echinochloa crus-galli, paddy weeds, were planted, and they were covered with 75 cm^3 of soil mixed with seeds of Lindernia procumbens and then filled with water depth of 5 cm and they were brought up in a greenhouse. When the test plants were at one-leaf stage, predetermined effective dosage (1000 g/ha as an active ingredient) of formulations comprising a compound of the present invention as an active ingredient was applied to the pot water. Then, they were brought up in a greenhouse and the herbicidal efficacy was examined after 21 days from the treatment by comparing with the result of an untreated group according to the criteria of Test Example 1. In the table, “-” means that the test was not performed.

Echinochloa crus-galli = experiment: as above; settings: one-leaf stage, 1000 g/ha as active ingredient, examined after 21 days
Description: as §2, §3

Lindernia procumbens [4] = experiment: as above; settings: one-leaf stage, 1000 g/ha as active ingredient, examined after 21 days
Description: as §2, §3

Row | Structure (SMILES) | Scirpus juncoides pre (herbicidal effect) (Scirpus juncoides [1]) | Lindernia procumbens pre (herbicidal effect) (Lindernia procumbens [2]) | Scirpus juncoides post (herbicidal effect) (Scirpus juncoides [3]) | Echinochloa crus-galli post (herbicidal effect) (Echinochloa crus-galli) | Lindernia procumbens post (herbicidal effect) (Lindernia procumbens [4])
1 | CCOC(=O)N(c1ccccc1CN1CCC(C(F)(F)F)(C(F)(F)F)OC1=O)S(=O)(=O)C(F)(F)F [Compound 1-340] | 4 (90%-99% herbicidal effect, phytotoxicity) | 5 (100% herbicidal effect, phytotoxicity) | 4 (90%-99% herbicidal effect, phytotoxicity) | 4 (90%-99% herbicidal effect, phytotoxicity) | –
2 | CC(C)COC(=O)N(c1ccccc1CN1CCCCOC1=S)S(=O)(=O)C(F)(F)F [2-17] | 4 (90%-99% herbicidal effect, phytotoxicity) | – | 4 (90%-99% herbicidal effect, phytotoxicity) | 4 (90%-99% herbicidal effect, phytotoxicity) | –
3 | O=S(=O)(Nc1ccccc1CN1CCCCOC1=S)C(F)(F)F [2-12] | 4 (90%-99% herbicidal effect, phytotoxicity) | 4 (90%-99% herbicidal effect, phytotoxicity) | 4 (90%-99% herbicidal effect, phytotoxicity) | 4 (90%-99% herbicidal effect, phytotoxicity) | –
4 | CCC1(C(F)(F)F)CCN(Cc2ccccc2N(C(=O)OCC(Cl)(Cl)Cl)S(=O)(=O)C(F)(F)F)C(=O)O1 (stereo not drawn) [Compound 1-416] | 5 (100% herbicidal effect, phytotoxicity) | 5 (100% herbicidal effect, phytotoxicity) | 4 (90%-99% herbicidal effect, phytotoxicity) | 5 (100% herbicidal effect, phytotoxicity) | –
5 | COCN(c1ccccc1CN1CCC(c2ccccc2)(C2CC2)OC1=O)S(=O)(=O)C(F)(F)F (stereo not drawn) [Compound 1-191] | – | 4 (90%-99% herbicidal effect, phytotoxicity) | – | 4 (90%-99% herbicidal effect, phytotoxicity) | –
6 | CC(C)COC(=O)N(c1ccccc1CN1CCC(C)(C(F)(F)F)OC1=O)S(=O)(=O)C(F)(F)F (stereo not drawn) [Compound 1-85] | 4 (90%-99% herbicidal effect, phytotoxicity) | 4 (90%-99% herbicidal effect, phytotoxicity) | 4 (90%-99% herbicidal effect, phytotoxicity) | 4 (90%-99% herbicidal effect, phytotoxicity) | –
7 | CC(C)COC(=O)N(c1ccccc1CN1CCC(c2ccccc2)(C2CC2)OC1=O)S(=O)(=O)C(F)(F)F (stereo not drawn) [Compound 1-188] | 4 (90%-99% herbicidal effect, phytotoxicity) | 4 (90%-99% herbicidal effect, phytotoxicity) | 4 (90%-99% herbicidal effect, phytotoxicity) | 4 (90%-99% herbicidal effect, phytotoxicity) | –
8 | CCOC(=O)N(c1ccccc1CN1CCC(c2c(F)cccc2F)OC1=O)S(=O)(=O)C(F)(F)F (stereo not drawn) [Compound 1-351] | 4 (90%-99% herbicidal effect, phytotoxicity) | 5 (100% herbicidal effect, phytotoxicity) | 4 (90%-99% herbicidal effect, phytotoxicity) | – | 5 (100% herbicidal effect, phytotoxicity)
9 | O=C1OC(c2ccccc2)(c2ccccc2)CCN1Cc1ccccc1NS(=O)(=O)C(F)(F)F [Compound 1-217] | 4 (90%-99% herbicidal effect, phytotoxicity) | 4 (90%-99% herbicidal effect, phytotoxicity) | 4 (90%-99% herbicidal effect, phytotoxicity) | – | 4 (90%-99% herbicidal effect, phytotoxicity)
10 | CC(C)(C)COC(=O)N(c1ccccc1CN1CCC(C2CC2)(C2CC2)OC1=O)S(=O)(=O)C(F)(F)F [Compound 1-155] | 4 (90%-99% herbicidal effect, phytotoxicity) | 4 (90%-99% herbicidal effect, phytotoxicity) | 4 (90%-99% herbicidal effect, phytotoxicity) | – | 4 (90%-99% herbicidal effect, phytotoxicity)
11 | O=C1OC(C(F)(F)F)(C(F)(F)F)CCN1Cc1ccccc1NS(=O)(=O)C(F)(F)F [Compound 1-338] | 4 (90%-99% herbicidal effect, phytotoxicity) | 4 (90%-99% herbicidal effect, phytotoxicity) | 4 (90%-99% herbicidal effect, phytotoxicity) | – | 5 (100% herbicidal effect, phytotoxicity)
12 | O=C1OC(c2ccccc2)(C2CC2)CCN1Cc1ccccc1NS(=O)(=O)C(F)(F)F (stereo not drawn) [Compound 1-183] | 4 (90%-99% herbicidal effect, phytotoxicity) | 4 (90%-99% herbicidal effect, phytotoxicity) | 4 (90%-99% herbicidal effect, phytotoxicity) | – | 4 (90%-99% herbicidal effect, phytotoxicity)
13 | CC1(C(F)(F)F)CCN(Cc2ccccc2NS(=O)(=O)C(F)(F)F)C(=O)O1 (stereo not drawn) [Compound 1-80] | 4 (90%-99% herbicidal effect, phytotoxicity) | 4 (90%-99% herbicidal effect, phytotoxicity) | 4 (90%-99% herbicidal effect, phytotoxicity) | 4 (90%-99% herbicidal effect, phytotoxicity) | –
14 | CCC1(CC(C)C)CCN(Cc2ccccc2N(C(=O)OCC(C)(C)C)S(=O)(=O)C(F)(F)F)C(=O)O1 (racemic) [Compound 1-423] | 4 (90%-99% herbicidal effect, phytotoxicity) | 5 (100% herbicidal effect, phytotoxicity) | 4 (90%-99% herbicidal effect, phytotoxicity) | – | 5 (100% herbicidal effect, phytotoxicity)
15 | Cc1ccccc1C1(C)CCN(Cc2ccccc2NS(=O)(=O)C(F)(F)F)C(=O)O1 (stereo not drawn) [Compound 1-404] | 4 (90%-99% herbicidal effect, phytotoxicity) | 5 (100% herbicidal effect, phytotoxicity) | 4 (90%-99% herbicidal effect, phytotoxicity) | – | 5 (100% herbicidal effect, phytotoxicity)
16 | CC1(c2c(F)cccc2F)CCN(Cc2ccccc2NS(=O)(=O)C(F)(F)F)C(=O)O1 (racemic) [Compound 1-439] | 5 (100% herbicidal effect, phytotoxicity) | 5 (100% herbicidal effect, phytotoxicity) | 4 (90%-99% herbicidal effect, phytotoxicity) | – | 5 (100% herbicidal effect, phytotoxicity)
17 | CCOC(=O)N(c1ccccc1CN1CCC(c2ccccc2Cl)OC1=O)S(=O)(=O)C(F)(F)F (stereo not drawn) [Compound 1-307] | 4 (90%-99% herbicidal effect, phytotoxicity) | 5 (100% herbicidal effect, phytotoxicity) | 4 (90%-99% herbicidal effect, phytotoxicity) | – | 5 (100% herbicidal effect, phytotoxicity)
18 | CCOC(=O)N(c1ccccc1CN1CCC(c2ccc(Cl)cc2)(C2CC2)OC1=O)S(=O)(=O)C(F)(F)F (stereo not drawn) [Compound 1-197] | 4 (90%-99% herbicidal effect, phytotoxicity) | 4 (90%-99% herbicidal effect, phytotoxicity) | 4 (90%-99% herbicidal effect, phytotoxicity) | – | 4 (90%-99% herbicidal effect, phytotoxicity)
19 | O=C1OC(c2ccc(Cl)cc2)(C2CC2)CCN1Cc1ccccc1NS(=O)(=O)C(F)(F)F (stereo not drawn) [Compound 1-195] | 4 (90%-99% herbicidal effect, phytotoxicity) | 4 (90%-99% herbicidal effect, phytotoxicity) | 4 (90%-99% herbicidal effect, phytotoxicity) | – | 4 (90%-99% herbicidal effect, phytotoxicity)
20 | CC(C)(C)COC(=O)N(c1ccccc1CN1CCC(C)(C2(C)CC2)OC1=O)S(=O)(=O)C(F)(F)F (stereo not drawn) [Compound 1-377] | 4 (90%-99% herbicidal effect, phytotoxicity) | 5 (100% herbicidal effect, phytotoxicity) | 4 (90%-99% herbicidal effect, phytotoxicity) | – | 5 (100% herbicidal effect, phytotoxicity)
21 | Cc1cccc(C)c1C1CCN(Cc2ccccc2NS(=O)(=O)C(F)(F)F)C(=O)O1 (stereo not drawn) [Compound 1-360] | 5 (100% herbicidal effect, phytotoxicity) | 5 (100% herbicidal effect, phytotoxicity) | 4 (90%-99% herbicidal effect, phytotoxicity) | – | 5 (100% herbicidal effect, phytotoxicity)
